Data from US20190062699A1, “HIGHLY FUNCTIONAL HEPATOCYTE AND USE THEREOF” (GAIA BioMedicine Inc., priority 2016, published 2019).
Entries after “also recorded” stand apart in the source; their conditions may differ.

System: iPS-HEP cells
Experiment: ammonia metabolism test (Ammonia Test Wako) on iPS-derived hepatocytes
Type: cell-based, human
Conditions: compounds in differentiation induction medium III (FH1 final 50 μM, FPH1 final 20 μM); compared with use of feeder cells (HUVECs, MSCs); 2 mM ammonia, 24 hours
Method: When HUVEC and MSC are used as feeder cells, perform co-culture as required as adhesion culture (refer to Non-patent document 1 cited below). • 2.11. Indicate the date, name of the cells, etc. on the culture plate, and carry out culture in an incubator at 37° C. and 5% CO2. • 2.12. Carry out an operation of removing the supernatant, and adding flesh medium III on every other day up to Day 17. • [Day 17: Completion of CiPS-Hep->ammonia metabolism test] • 1. Prepare HBM (cocktail)+aqueous ammonia (henceforth referred to as ammonia medium) in a volume of 1 ml/well×2.
• 2. Remove the culture supernatant, and wash the cell surfaces once with 1 ml of HBM, and once with ammonia HBM. • 3. […]
• 4. […] During the centrifugation, turn on the power sources of microplate reader and personal computer, and choose Tecan i-control. • 8. […] Remove a lid, set the plate on the microplate reader, and sway the plate (double click “Shaking”, choose “10 sec” and “Normal”, and click “Start”). • 11. […] Set the plate on the microplate reader, and sway the plate. • 13. […] Set the plate on the microplate reader, and sway the plate. • 15. […] Finely wipe the bottom of the plate, and set the plate on the microplate reader with adjusting the upper left corner. • 18. Measure absorbance (620 or 630 nm) (double click “Measure” of “Absorbance”, select the well for measurement at 620 nm in “Details”, and click “Start”).

| SMILES | ammonia-metabolizing function-enhancing effect |
| --- | --- |
| CC(=O)Nc1ccc(Cc2ccc(NC(C)=O)cc2)cc1 [FH1, N,N′-(methylenebis)(4,1-phenylene)diacetamide] | higher ammonia-metabolizing function-enhancing effect compared with use of feeder cells; also recorded: higher metabolism-enhancing effect compared with use of feeder cells |
| Cc1ccc(Cl)cc1N(CC(=O)Nc1c(F)cccc1F)S(C)(=O)=O [FPH1, 2-N-(5-chloro-2-methylphenyl)(methylsulfonamido)-N-(2,6-difluorophenyl)acetamide] | higher ammonia-metabolizing function-enhancing effect compared with use of feeder cells; also recorded: higher metabolism-enhancing effect compared with use of feeder cells |
